Where “and” joins values, the source holds several entries; their conditions need not be identical. Identical values can stand only once. Marks after values point to notes of the source that are not given here.
Assays:
PAH rats [1] = test: In-life data (body weight, discomfort, mortality) during chronic SUL-150 administration; format: in vivo, rat; settings: ~6 mg·kg^−1·day^−1 i.p. minipump, 28 days
Method: The administration of vehicle and SUL-150 started 7 days post-monocrotaline injection and was performed by the i.p. implantation of osmotic minipumps (Alzet model #2004, Durect Corp., Cupertino, CA, USA) at the time of aortocaval shunt placement. The Lynch coil method was used to circumvent compatibility issues with the osmotic minipump reservoir as described previously. Vehicle (dimethyl sulfoxide (DMSO) or SUL-150 ((R)-(6-hydroxy-2,5,7,8-tetramethylchroman-2-yl)(piperazin-1-yl)methanone, 0.9 M in DMSO, Sulfateq BV, Groningen, The Netherlands) was administered at a flow rate of 0.25 µL·h^−1, accumulating to an approximate dose of 6 mg·kg^−1·day^−1 SUL-150 in a 300 g rat. Animals were weighed, watched for dyspnea, cyanosis, and oedema, and sacrificed preterm when a 15% weight loss or debilitating dyspnea occurred.
Three rats died during the study without a clear cause at necropsy and were excluded (sham control (n = 1) and vehicle-treated (n = 2) rats). At sacrifice, 7 rats were excluded from the study because of procedural motives: in two rats (vehicle (n = 1) and SUL-150-treated (n = 1) rats), adequate AC shunt could not be confirmed. In two other rats (both SUL-150-treated rats), the osmotic pumps were blocked by adipose deposits, limiting their function. Three rats died during cardiac function assessment (sham control (n = 2) and SUL-150 treated (n = 1) rats). Twenty rats were included in the study (sham control (n = 7), vehicle-treated (n = 7), and SUL-150-treated (n = 6) rats.

[2] = test system: right ventricle of PAH rats; test: Right ventricle mtDNA copy number, radical scavenging, lipid peroxidation and ATP; settings: ~6 mg·kg^−1·day^−1 i.p. minipump, 28 days
[3] = test system: neonatal rat cardiomyocytes; test: In vitro hypertrophy reporter assay in phenylephrine-treated cardiomyocytes; format: cell-based
Method: Cultures of neonatal rat cardiomyocytes were prepared from 1–3-day-old Wistar rats and adenovirally transformed with hypertrophy reporter construct as described elsewhere. Cardiomyocytes were pre-incubated with SUL-150 (3 × 10^−5 M) or vehicle for 30 min and subsequently stimulated with phenylephrine in the dose range of 10^−8 to 10^−4 M for 24 h. Cells were lysed in passive lysis buffer (Promega, Madison, WI, USA), and […] intensity of the lysate was recorded in an EnVision 2102 plate reader (Perkin Elmer, Waltham, MA, USA).

PAH rats [4] = test: Histochemistry: pulmonary artery and vessel remodeling, cardiomyocyte hypertrophy, cardiac fibrosis; format: in vivo, rat; settings: ~6 mg·kg^−1·day^−1 i.p. minipump, 28 days
Method: Cross-sectional cardiomyocyte area was determined for approximately 400 cardiomyocytes/sample (range 182–768) using Fiji 2.1.0/1.53c in binary mode with the following particle analyzer settings: circularity 0.25–1.00 and pixel area 300–1000 px^2.
Cardiac fibrosis was measured after picrosirius staining and counterstaining with Weigert’s hematoxylin (both Sigma-Aldrich, St. Louis, MO, USA) following the manufacturer’s instructions. Samples were imaged on a NanoZoomer digital slide scanner (Hammamatsu Photonics, Shizuoka, Japan) at 40× magnification. Interstitial fibrosis (i.e., non-perivascular fibrosis) was quantified using Aperio ImageScope (Leica Biosystems, Nussloch, Germany). Morphology of the intra-acinar pulmonary vessels was assessed after Verhoeff-Von Gieson staining (Sigma-Aldrich, St. Louis, MO, USA). Samples were imaged on a Leica DM2000 microscope at 63× magnification using Leica Image Acquisition software version 4.13 (Leica, Wetzlar, Germany). Pulmonary vessel remodeling was quantified as described previously.

pulmonary artery rings = test: Ex vivo myography of pulmonary artery rings, acute SUL-150 pre-incubation, phenylephrine-induced vasoconstriction; parameters: species or system rat; settings: 10^−4 M SUL-150 pre-incubation
Method: The fourth-degree branching intralobar pulmonary arteries were carefully dissected under a Leica S4E stereomicroscope as described before. Arterial ring segments (2 mm length) were mounted in a Mulvany-type wire myograph system (model #610M, Danish Myo Technology, Aarhus, Denmark) using Ø40 µm steel wire. Rings were preserved in myography chambers filled with aerated Krebs buffer (pH 7.4) at 37 °C. After 20 min equilibration, rings were stretched to 1.8 kPa using the DMT Normalization Procedure and allowed to equilibrate for an additional 20 min. Analogue–digital signal conversion was performed using PowerLab 8/30, and a myogram was recorded in PowerLab Chart v 5.3 (AD Instruments, Oxford, UK). To assess the acute effects of SUL-150 on vasoconstriction, arterial rings were pre-constricted with 60 mM KCl and, following washout and stabilization, incubated with vehicle (0.1% DMSO) or SUL-150 (10^−4 M) for 20 min. Next, constriction responses to phenylephrine (phenylephrine, Sigma-Aldrich, St. Louis, MO, USA) were recorded in the dose range of 3 × 10^−9 to 3 × 10^−5 M. To assess the chronic effects of SUL-150 treatment, a similar protocol was followed, leaving out the preincubation with vehicle or SUL-150. Isometric responses were calculated as % of maximal KCl-induced constriction, and dose–response curves were recorded to determine the efficacy (Emax) and potency (EC50) of phenylephrine to induce vasoconstriction.

Cc1c(C)c2c(c(C)c1O)CC[C@](C)(C(=O)N1CCNCC1)O2 [SUL-150, (R)-(6-hydroxy-2,5,7,8-tetramethylchroman-2-yl)(piperazin-1-yl)methanone]
Dyspnea frequency (PAH rats [1]): 33.3 % of rats
Edema frequency (PAH rats [1]): 0 % of rats and 0 ^a,b % of rats
End weight (day 32–33) (PAH rats [1]): 319.3 ± 12.0 ^a g
Mortality (%) (PAH rats [1]): 0 (0%) ^a,b
number of rats with dyspnea (PAH rats [1]): 2 n
survival rate (PAH rats [1]): 100%
ATP level of the right ventricle [2]: 272.2 ± 26.6 pmol/mg
endogenous radical scavenging activity in right ventricle ([2]; result in words): maintained
lipid peroxidation level in right ventricle ([2]; result in words): decreased lipid peroxidation level to those of sham rats
Emax of phenylephrine in hypertrophy reporter with SUL-150 co-treatment ([3]; SUL-150 3 × 10^−5 M pre-incubated 30 min, phenylephrine 24 h): 2.36 RFU
reduction in phenylephrine efficacy in hypertrophy reporter ([3]; SUL-150 3 × 10^−5 M versus vehicle): 40%
cardiomyocyte cross-sectional area (right ventricle) (PAH rats [4]): 246.1 ± 39.4 µm^2
cross-sectional vascular area (PAH rats [4]): 888.2 ± 146.7 µm^2
interstitial fibrosis in the cardiac tissue (PAH rats [4]): 9.3 % of tissue area
intra-acinar pulmonary vessels, cross-sectional lumen area (PAH rats [4]): 365.7 ± 101.1 µm^2
intra-acinar vessel occlusion score (PAH rats [4]): 39.0 ± 7.4%
pulmonary artery wall thickness (PAH rats [4]): 57.6 ± 13.0 µm
wall–lumen ratio (PAH rats [4]): 0.42 ± 0.12 µmwall·µmlumen^−1
percentage of non-perfusable vessels (PAH rats [4]; vessels with a luminal area < 40 µm^2): 4.45 ± 2.62%
Emax of phenylephrine-induced vasoconstriction after SUL-150 pre-incubation (pulmonary artery rings; pulmonary artery rings of PAH rats (day 21 post-MCT)): 11.03 % of max
Emax of phenylephrine-induced vasoconstriction after SUL-150 pre-incubation (pulmonary artery rings; pulmonary artery rings of sham rats, % of maximal KCl-induced constriction): 15.6 % of max
